Experimental data from patent publication US6495576B2, “Aminal diones as potassium channel openers” (Abbott Laboratories, priority 2001, dated 2002).
pEC50: −log10 of the molar value. Read-outs that look alike come from different tables or passages of the source.

Tested on: Landrace pig bladder strips
Experiment: Functional potassium channel opening activity in isolated, field-stimulated bladder strips
Conditions: for Index: ED50 for P1075 divided by ED50 for test agonist in a given tissue, averaged; for Emax: maximal efficacy on stimulated twitch, relative to P1075; for pEC50: amount causing 50% of the agent's maximal response, field stimulation 0.05 Hz, 0.5 ms, 20 volts, read-out: ED50 (the source's name)
Experimental: Compound were evaluated for functional potassium channel opening activity using tissue strips obtained from Landrace pig bladders.
Landrace pig bladders were obtained from female Landrace pigs of 9-30 kg. Landrace pig were euthanized with an intraperitoneal injection of pentobarbital solution, Somlethal ®, J. A. Webster Inc. Sterling Mass. The entire bladder was removed and immediately placed into Krebs Ringer bicarbonate solution (composition, mM: NaCl, 120; NaHCO3, 20; dextrose, 11; KCl, 4.7; CaCl2, 2.5; MgSO4, 1.5; KH2PO4, 1.2; K2EDTA, 0.01, equilibrated with 5% CO2/95% O2 pH 7.4 at 37° C.). Propranolol (0.004 mM) was included in all of the assays to block β-adrenoceptors. The trigonal and dome portions were discarded. Strips 3-5 mm wide and 20 mm long were prepared from the remaining tissue cut in a circular fashion. The mucosal layer was removed. One end was fixed to a stationary glass rod and the other to a Grass FT03 transducer at a basal preload of 1.0 gram. Two parallel platinum electrodes were included in the stationary glass rod to provide field stimulation of 0.05 Hz, 0.5 milli-seconds at 20 volts. This low frequency stimulation produced a stable twitch response of 100-500 centigrams. Tissues were allowed to equilibrate for at least 60 minutes and primed with 80 mM KCl. A control concentration response curve (cumulative) was generated for each tissue using the potassium channel opener P1075 as the control agonist. […] After a 60 minute rinsing period, a concentration response curve (cumulative) was generated for the test agonist in the same fashion as that used for control agonist P1075. The maximal efficacy of each compound (expressed as % relative to P1075) is reported. The amount of agent necessary to cause 50% of the agent's maximal response (ED50) was calculated using “ALLFIT” (DeLean et al., Am. J. Physiol., 235, E97 (1980)), hereby incorporated by reference. Agonist potencies were also expressed as an index relative to P1075. The index was calculated by dividing the ED50 for P1075 by the ED50 for the test agonist in a given tissue. Each tissue was used for only one test agonist, and the indices obtained from each tissue were averaged to provide an average index of potency.

Row | Structure (SMILES) | Index | other results
1 | Cc1cccc(C(=O)NC(Nc2c(Nc3cccnc3Cl)c(=O)c2=O)C(C)(C)C)c1 (stereo not shown) [Example 32, N-[1-({2-[(2-Chloro-3-pyridinyl)amino]-3,4-dioxo-1-cyclobuten-1-yl}amino)-2,2-dimethylpropyl]-3-methylbenzamide] | 0.076 | 
2 | COc1cc(OC)cc(C(=O)NC(Nc2c(Nc3cccnc3)c(=O)c2=O)C(C)(C)C)c1 (stereo not shown) [Example 13, N-(1-{[3,4-dioxo-2-(3-pyridinylamino)-1-cyclobuten-1-yl]amino}-2,2-dimethylpropyl)-3,5-dimethoxybenzamide] | 0.57 | 
3 | CC(C)(C)C(NC(=O)c1ccc(I)cc1)Nc1c(Nc2cccnc2)c(=O)c1=O (stereo not shown) [Example 3, N-(1-{[3,4-Dioxo-2-(3-pyridinylamino)-1-cyclobuten-1-yl]amino}-2,2-dimethylpropyl)-4-iodobenzamide] | 0.062 | 
4 | CC(C)(C)C(NC(=O)c1cc(F)cc(F)c1)Nc1c(Nc2cccnc2)c(=O)c1=O (single isomer, unassigned; (-)) [Example 50, (−)N-(1-{[3,4-Dioxo-2-(3-pyridinylamino)-1-cyclobuten-1-yl]amino}-2,2-dimethylpropyl)-3,5-difluorobenzamide] | 0.14 | Emax (Sus scrofa): 79%; pEC50: 5.17
5 | O=C(NC(Nc1c(Nc2cccnc2)c(=O)c1=O)C(F)(F)C(F)(F)F)c1cccc(Cl)c1 (stereo not shown) [Example 26, 3-Chloro-N-(1-{[3,4-dioxo-2-(3-pyridinylamino)-1-cyclobuten-1-yl]amino}−2,2,3,3,3-pentafluoropropyl)benzamide] | 0.64 | 
6 | CC(C)(C)C(NC(=O)c1cccc(Cl)c1)Nc1c(Nc2cccnc2)c(=O)c1=O (stereo not shown) [Example 5, 3-chloro-N-(1-{[3,4-Dioxo-2-(3-pyridinylamino)-1-cyclobuten-1-yl]amino}-2,2-dimethylpropyl)benzamide] | 0.059 | 
7 | CC(C)(C)C(NC(=O)c1cccc(I)c1)Nc1c(Nc2cccnc2)c(=O)c1=O (stereo not shown) [Example 8, N-(1-{[3,4-Dioxo-2-(3-pyridinylamino)-1-cyclobuten-1-yl]amino}-2,2-dimethylpropyl)-3-iodobenzamide] | 0.047 | 
8 | CCC(C)(C)N=C(NC#N)Nc1cccnc1 [Example P1075, reference compound] |  | effect on stimulated twitch (control agonist, dose dependent, 10^−9 to 10^−5 M): completely eliminated the stimulated twitch
9 | CC(C)(C)C(NC(=O)c1cccc(Br)c1)Nc1c(Nc2cccnc2)c(=O)c1=O (stereo not shown) [Example 66, 3-Bromo-N-(1-{[3,4-dioxo-2-(3-pyridinylamino)-1-cyclobuten-1-yl]amino}-2,2-dimethylpropyl)benzamide] | 0.040 | pEC50 (Sus scrofa): 5.38; Emax (Sus scrofa): 74%
